Our source for the MIC and Activity values is ChEMBL document CHEMBL5537201, “Discovery of Unique Bis-Substituted Aromatic Amide Derivatives as Novel Highly Potent Antibiotics for Combating Methicillin-Resistant Staphylococcus aureus (MRSA)” (J Med Chem, 2024).

Data set [1] relates to Staphylococcus aureus. The data set can be described thus: Antimicrobial activity against methicillin resistant Staphylococcus aureus clinical isolate MRS152 assessed as reduction in bacterial growth incubated for 24 hrs by two-fold broth dilution method. Format: functional. A general note: Broth dilution looks for growth in wells or tubes with falling amounts of substance.

The subject of data set [2] is Cell membrane. The data set can be described thus: Induction of inner membrane permeabilization in methicillin resistant Staphylococcus aureus clinical isolate MRS153 assessed as increase in blue fluorescence at 5 ug/ml by DAPI staining based analysis. Format: cell membranes. To be noted: dose 5.0 µg/ml.
The subject of data set [3] is Staphylococcus aureus. The data set can be described thus: Binding affinity to methicillin resistant Staphylococcus aureus clinical isolate MRS153 Phosphatidylglycerol assessed as change in MIC at upto 256 ug/ml measured after 22 hrs. The conditions noted are these: dose <= 256.0 µg/ml.
Data set [4] is described as follows: Toxicity in BALB/c mouse assessed as as effect on lung at 25 to 50 mg/kg, iv by H and E staining based analysis. Format: organism-based. To be noted: in vivo, dose 25-50 mg/kg.
The test system of a further data set is Staphylococcus hominis. The experiment in a line: Antimicrobial activity against methicillin-resistant Staphylococcus hominis assessed as reduction in bacterial growth incubated for 24 hrs by two-fold broth dilution method. Format: functional.
The subject of data set [5] is Staphylococcus aureus. The data set can be described thus: In vivo antibacterial activity against methicillin-resistant Staphylococcus aureus clinical isolate MRS153 infected in C57BL/6N mouse model assessed as reduction in bacterial load in heart at 3.125 to 12.5 mg/kg, iv measured after 24 hrs. The data set is classed as functional, organism-based. To be noted: dose 3.125-12.5 mg/kg.

For data set [6], the system named is Staphylococcus aureus. The data set can be described thus: Binding affinity to Staphylococcus aureus ATCC6538 Phosphatidylglycerol assessed as change in MIC at upto 256 ug/ml measured after 22 hrs. The conditions noted are these: dose <= 256.0 µg/ml.
For data set [7], the system named is Staphylococcus aureus. The data set can be described thus: Antimicrobial activity against vancomycin-resistant Staphylococcus aureus assessed as reduction in bacterial growth incubated for 24 hrs by two-fold broth dilution method. The data set is classed as functional.
The test system of data set [8] is Cell membrane. The experiment in a line: Induction of Outer membrane disruption in methicillin resistant Staphylococcus aureus clinical isolate MRS153 assessed as […] in fluorescence intensity measured upto 30 mins by NPN dye based fluorescence analysis. The data set is classed as cell membranes.
Data set [9] deals with Staphylococcus aureus. The data set can be described thus: Antimicrobial activity against methicillin resistant Staphylococcus aureus clinical isolate MRS70 assessed as reduction in bacterial growth incubated for 24 hrs by two-fold broth dilution method. The data set is classed as functional.
The test system of data set [10] is Staphylococcus aureus. The data set can be described thus: Bactericidal activity against vancomycin-resistant Staphylococcus aureus ATCC6538 measured upto 120 mins by colony counting method. The data set is classed as functional, organism-based.
Data set [11] deals with Staphylococcus aureus. The data set can be described thus: Antimicrobial activity against methicillin resistant Staphylococcus aureus clinical isolate MRS1 assessed as reduction in bacterial growth incubated for 24 hrs by two-fold broth dilution method. Format: functional.
In data set [12] the test system is Staphylococcus aureus. The experiment in a line: Bactericidal activity against Staphylococcus aureus ATCC6538 assessed as reduction in survival rate at 5 to 10 times MIC measured within 1 hr by colony counting method. Format: functional, organism-based.
Data set [13] has as its system Cell membrane. The data set can be described thus: Induction of inner membrane permeabilization in Staphylococcus aureus ATCC6538 assessed as increase in […] fluorescence at 5 ug/ml by PI staining based analysis. Format: cell membranes. To be noted: dose 5.0 µg/ml.

Values after ≈ are worked out from the molar mass of the structure shown. Active and inactive are the calls of the source. The rule behind the calls is not given here.

Consider `O=C(CCC(F)(F)F)N(Cc1cc2ccccc2s1)c1cc(-c2noc(C(F)(F)F)n2)ccc1O`, for which the MIC (usually the lowest concentration found to suppress growth) came out at 1 µg/mL (≈ 1.94 µM) with Staphylococcus aureus [1]; 1 µg/mL (≈ 1.94 µM) with Staphylococcus hominis; 0.5 µg/mL (≈ 0.97 µM) with Staphylococcus aureus [7]; 1 µg/mL (≈ 1.94 µM) in the data set on Staphylococcus aureus [9]; 1 µg/mL (≈ 1.94 µM) in the data set with Staphylococcus aureus [11]. Further, the outcome in the data set with Cell membrane [2], in the data set with Staphylococcus aureus [5], with Staphylococcus aureus [12] and in the data set on Cell membrane [13] was Active. Also, the outcome in the data set with Staphylococcus aureus [3] and with Staphylococcus aureus [6] was inactive. Also, the Activity entry was “Non-Toxic” in [4], “Dose-Dependent Effect” with Cell membrane [8] and “Dose-Dependent Effect” in the data set with Staphylococcus aureus [10].
